2 molecules from PMC5143673 (Innate immunity, 2016) can be followed below.

Non-standard residues stand in square brackets, D forms with d. No end group written: not given here. hCit = NC(=O)NCCCC[C@H](N)C(=O)O

The target of data set [1] is N-HisTag containing ApoA1 (NH-ApoA1) (UniProt P02647). The data set can be described thus: SPR.
Chain of UniProt P02647 (P02647 19-267): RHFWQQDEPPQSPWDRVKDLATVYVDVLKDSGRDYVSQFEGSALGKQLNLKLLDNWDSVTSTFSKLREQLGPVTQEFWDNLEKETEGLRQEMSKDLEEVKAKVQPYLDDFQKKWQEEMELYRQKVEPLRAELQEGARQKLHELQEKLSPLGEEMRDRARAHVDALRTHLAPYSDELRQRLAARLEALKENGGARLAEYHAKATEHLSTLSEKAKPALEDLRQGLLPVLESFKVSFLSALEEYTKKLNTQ

With “LLGDFFRKSKEKIGKEFKRIVQRIKDFLRNLVPRTES [LL-37]”, in the data set with neutrophils, the “capacity to lyse neutrophils and erythrocytes” value was “ability of LL-37^C8 and LL-37^C12,15 to lyse neutrophils and erythrocytes was different”.
Regarding LLGDFFRKSKE[hCit]IG[hCit]EFKRIVQRIKDFLRNLVPRTES [LL-37^C12,15 (LL-37 carbamylated on Lys-12 and Lys-15)], the fold lower affinity than native LL-37 in data set [1] turned out to be 3 fold.
